From PubChem BioAssay (NCI) come the findings set out here.

What all share (test): NCI anticancer screen, dose series, 48 h
The test system of experiment [1] is A549 NSCLC.
Experiment [2] has as its system COLO 205 colon.
The test system of experiment [3] is HCC-2998 colon.
The subject of experiment [4] is NCI-H522 lung.
Experiment [5] concerns OVCAR-8 ovarian.
Experiment [6] has as its system RPMI-8226 leukemia.
The subject of experiment [7] is SF-295 CNS.
The subject of experiment [8] is SK-OV-3 ovarian.
Experiment [9] deals with SW-620 colon.
In experiment [10] the test system is TK-10 renal.

Where “and” joins values, the source holds several entries; their conditions need not be identical. Equal entries are not always repeated.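 Where inhibition never reached the appropriate level, the endpoint shown equals the highest concentration tested. Otherwise, values were interpolated linearly from a five-concentration, 48-hour dose response in 96-well plates. The concentration for 50% growth inhibition is given as GI50. TGI denotes the concentration required for complete inhibition of growth.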 A value given as a limit tells only on which side of the number the result lay.

Regarding `COc1ccc(Cc2cnc(NC(=O)c3ccc4c(c3)OCCO4)s2)cc1`, the GI50 in experiment [1] is 0.044 µM; in experiment [2] it was 0.0289 µM; in [3], 0.038 µM; in experiment [4], below 0.0125 µM; in [5] it was 0.0426 µM; in [6], 0.0499 µM. The GI50 in experiment [7] was 0.0242 µM; in [8], 0.0321 µM; in [9] it was 0.0338 µM; in [10], 0.406 µM. Besides, the TGI in experiment [1] was above 100 µM; in [2] it was 0.319 µM; in experiment [3], above 69.6 µM; in experiment [5] it was above 100 µM; in experiment [6], above 100 µM; in experiment [7], 20.8 µM. Also, the figures for the TGI in [8], in [9] and in experiment [10] were above 100 µM, above 100 µM and 35.3 µM, respectively.
Regarding `CC[C@@]1(O)C(=O)OCc2c1cc1n(c2=O)Cc2c-1nc1cc(F)c(C)c3c1c2[C@@H](N)CC3`, the GI50 was below 0.01 µM in experiment [1]; 0.0265 µM in [2]; 0.0314 µM in experiment [3]; below 0.01 µM in experiment [4]; below 0.01 µM in [5]; 0.0109 µM in experiment [6]. Also, the GI50 in experiment [7] was below 0.01 µM; in experiment [8], below 0.01 µM; in experiment [9], below 0.01 µM; in [10], 0.0725 µM. The TGI in [1] is 1.15 µM; in [2] it was 0.837 µM; in experiment [3] it was 0.665 µM; in experiment [4], 0.531 µM; in [5], above 100 µM; in experiment [6], 1.58 µM. The results for the TGI in experiment [7], in experiment [8] and in experiment [9] were 0.0915 µM, 1.41 µM and above 100 µM, respectively.
As for `C/C(=N\NC(=S)N1CC2CCC(CC2)C1)c1ccccn1`, the GI50 in experiment [1] was 0.064 µM; in experiment [2], 0.0146 µM; in [3] it was 0.171 µM; in [4], 0.195 µM; in experiment [5], below 0.0209 µM; in experiment [6] it was 0.0368 µM. The GI50 in [7] is 0.178 µM; in experiment [8], 0.0465 µM; in experiment [9], 0.033 µM; in [10], 0.405 µM. For the same molecule, the TGI in experiment [1] stood at 1.66 µM; in [2], 0.0719 µM; in experiment [3] it was 1.8 µM; in experiment [4] it was 1.27 µM; in experiment [5] it was 1.53 µM; in experiment [6], 0.78 µM. Further, the TGI in experiment [7] stood at 2.08 µM; in [8] it was 1.01 µM; in experiment [9], 1.57 µM; in experiment [10], 1.78 µM.
In the case of `COC(=O)/C(=C\c1ccc(N(CCC#N)CCC#N)cc1)NC(=O)c1cc([N+](=O)[O-])ccc1Cl`, the TGI in experiment [1], in experiment [2], in experiment [3], in experiment [4], in experiment [5] and in [6] was above 100 µM in each case. Besides, the TGI in [7], in experiment [8], in experiment [9] and in experiment [10] was above 100 µM in each case.
As for `CCN(CC)c1cc2oc3cc(N)cc(=N)c-3nc2cc1C`, the GI50 in experiment [1] was 3.63 µM; in experiment [2], 1.9 µM; in experiment [3] it was 10 µM; in experiment [4] it was 2.31 µM; in experiment [5], 2.77 µM; in [6], 1.03 µM. For the same molecule, the GI50 was 1.85 µM in experiment [7], 22.2 µM in experiment [8], 2.75 µM in [9] and 4.9 µM in [10]. For the same molecule, the TGI in experiment [1] was 18.3 µM; in [2], 3.95 µM; in experiment [3], 81.2 µM; in [4], 6.05 µM; in experiment [5], above 100 µM; in experiment [6], 23.7 µM. Also, the TGI is 5.19 µM in experiment [7], above 100 µM in experiment [8], 19.5 µM in experiment [9] and 23.1 µM in experiment [10].
In the case of `CCCCCCCCCCCCOC1C(C(CC(=O)NCCN2CCCC2)NS(=O)(=O)c2cc(Cl)cc(Cl)c2)OC2OC(C)(C)OC21` (stereo unspecified), the GI50 was 2.5 µM in [1]; 2.06 µM and 1.19 µM in experiment [2]; 2.14 µM in [3]; 2.11 µM in [4]; 2.21 µM in [5]; 1.23 µM in experiment [6]. In addition, the GI50 was 1.9 µM in experiment [7]; 2.08 µM and 1.32 µM in experiment [8]; 1.98 µM in experiment [9]; 2 µM in [10]. Besides, the TGI in [1] was 6.41 µM; in experiment [2] it was 4.4 µM and 2.66 µM; in experiment [3] it was 4.56 µM; in experiment [4], 3.98 µM; in experiment [5], 4.88 µM; in experiment [6] it was 3.21 µM. Besides, the TGI in experiment [7] was 4.69 µM; in experiment [8] it was 3.79 µM and 2.73 µM; in experiment [9] it was 3.63 µM; in [10], 3.82 µM.
With `O=C(OCc1ccc2c(Cl)cc(Cl)c(O)c2n1)N1CCN(C(=O)c2cc3cc(F)ccc3[nH]2)CC1`, the GI50 in experiment [1] was 7.03 µM; in [2], 38.7 µM; in experiment [3], 3.95 µM; in experiment [4], 0.303 µM; in experiment [5] it was 0.551 µM; in experiment [6] it was 0.48 µM. Moreover, the GI50 was 9.49 µM in experiment [7], 3.6 µM in experiment [8], 0.83 µM in experiment [9] and 99.5 µM in experiment [10]. The TGI in experiment [1] was above 100 µM; in experiment [2], above 100 µM; in experiment [3], above 94.6 µM; in [4], above 100 µM; in experiment [5], above 100 µM; in experiment [6], above 100 µM. Besides, the TGI in experiment [7], in experiment [8], in experiment [9] and in experiment [10] was above 100 µM each time.
In the case of `Cc1ccc(Nc2nnc(-c3ccc4c(c3)OCO4)o2)c(C)c1`, the TGI in [1], in experiment [2], in [3], in experiment [4], in experiment [5] and in experiment [6] was above 100 µM in each case. For the same molecule, the TGI in [7], in experiment [8], in [9] and in experiment [10] was above 100 µM throughout.
As for `O=C(CSC(c1ccccc1)c1ccccc1)N/N=C/c1ccco1`, the GI50 in experiment [1] is 1.54 µM; in [2], 20.3 µM; in experiment [3] it was 1.62 µM; in experiment [4], 1.4 µM; in [5] it was 1.84 µM; in [6], 1.94 µM. For the same molecule, the GI50 in experiment [7] is 2.4 µM; in experiment [8], 28.3 µM; in experiment [9], 2.9 µM; in [10], 2.21 µM. The TGI worked out at 5.28 µM in experiment [1]; 52 µM in experiment [2]; 3.58 µM in [3]; 4.49 µM in experiment [4]; 6.67 µM in experiment [5]; 4.45 µM in experiment [6]. For the same molecule, the TGI in experiment [7] is 12.5 µM; in experiment [8] it was above 73 µM; in experiment [9] it was above 11.6 µM; in experiment [10] it was 7.62 µM.
As for `O=C(NCc1ccc(S(=O)(=O)c2cc(F)cc(F)c2)cc1)c1ccc2nccn2c1`, the GI50 in experiment [1] was 9.59 µM; in experiment [3], 14.6 µM; in experiment [4] it was below 0.01 µM; in experiment [5] it was below 0.01 µM; in [7] it was 15.8 µM; in experiment [8], 17.1 µM. Further, the GI50 in experiment [9] is below 0.01 µM; in [10], 36.3 µM. The TGI in experiment [1] is above 100 µM; in [2], above 100 µM; in experiment [3], above 100 µM; in experiment [4] it was 43 µM; in [5] it was above 100 µM; in experiment [6] it was above 100 µM. The TGI in experiment [7] was above 95.3 µM; in [8], 60.6 µM; in [9], above 100 µM; in experiment [10] it was above 62.9 µM.
As to `S=C1SC2=Nc3ccccc3CN2C2=NCCN12`, the GI50 in experiment [1] is above 100 µM; in experiment [2] it was 54.4 µM; in experiment [3], above 100 µM; in experiment [4], 27.7 µM; in [5] it was above 100 µM; in experiment [6], above 100 µM. The GI50 is 83.5 µM in experiment [7], above 100 µM in experiment [8], 39.8 µM in [9] and above 100 µM in experiment [10]. Further, the TGI in experiment [1], in experiment [2], in [3], in [4], in experiment [5] and in experiment [6] was above 100 µM throughout. For the same molecule, the TGI in experiment [7], in experiment [8], in experiment [9] and in experiment [10] was above 100 µM throughout.
Consider `CCN(CC)CCNC(=O)c1ccc(C)c(OCc2ccccc2)c1[N+](=O)[O-]`, for which the TGI was above 100 µM in [1]; 30.8 µM in experiment [2]; above 69.1 µM in experiment [3]; 76.5 µM in experiment [4]; above 100 µM in [5]; 72.6 µM in experiment [6]. Further, the TGI in [7] was 55.8 µM; in experiment [8], above 75.9 µM; in [9], 44 µM; in experiment [10] it was 98.1 µM.
